Earlier results, collected in patent US7718380B2 (Abbott Laboratories, priority 2005, dated 2010).

solubility in aqueous solutions: limited solubility
SMILES: C=CC[C@@H]1/C=C(\C)C[C@H](C)C[C@H](OC)[C@H]2O[C@@](O)(C(=O)C(=O)N3CCCC[C@H]3C(=O)O[C@H](/C(C)=C/[C@@H]3CC[C@@H](O)[C@H](OC)C3)[C@H](C)[C@@H](O)CC1=O)[C@H](C)C[C@@H]2OC [Tacrolimus]
